Measured values taken from patent publication US20100222285A1, “METHOD OF CONTROLLING THE PROLIFERATION OF VASCULAR ENDOTHELIAL CELLS AND INHIBITING LUMEN FORMATION” (Rare Sugar Production Technical Research Laboratories, LLC, priority 2004, published 2010).
“Also recorded” adds a separate entry of the source. Read-outs that look alike come from different tables or passages of the source.

Legend:
[1] = tested on: Human umbilical cord vascular endothelial cells (HUVEC); test: Experiment of growth: HUVEC cell number by WST-8 after 48 hrs; type: cell-based; settings: for inhibition at 20000 µM: Homo sapiens, HUVEC, 20 mM, read-out: inhibition of growth to the control group; for antagonism of the growth inhibitory effect by D-glucose: co-existence of 20 mM D-glucose
Method: Human umbilical cord vascular endothelial cells (HUVEC) were purchased as primary cultured cells from KURABO (Kurabo Co., Osaka, Japan) and the cells up to P8 were used in experiments. The cells were inoculated on a 96-well plate at a rate of 3000 cells/well, and allowed to stand in Humedia EG2 (Kurabo) overnight (37° C., 5% CO2). Next morning, the medium was replaced by 90 μl of 2% FBS-containing Humedia EB2 (Kurabo), to which was then added 10 μl of additive, and after a lapse of 48 hrs the number of cells was counted. No medium was exchanged during this period. In counting, a tetrazolium salt WST-8 was added to each well (0.5 mM), and after 2 hrs the absorbance was measured at 450 nm. The tetrazolium salt added was reduced with an intracellular dehydrogenase to yield formazan depending on the number of cells in the well. In advance, the absorbance at 450 nm was confirmed to show a linearity within the range of 500 to 12000 cells in the well.

[2] = tested on: human endothelial cells and fibroblasts; test: Experiment of luminal formation: concurrent culture, CD31 staining, area of the lumen; type: cell-based; settings: for effect on the luminal formation: Example 1, 0.1-20 mM, 10 days; for effect on the luminal formation of HUVEC: Example 2 (36 species), incubation for 10 days; for inhibition at 1000 µM / inhibition at 2500 µM / inhibition at 20000 µM: Homo sapiens; for inhibition at 1000 µM: 1 mM; for inhibition at 2500 µM: 2.5 mM; for antagonism of the luminal formation inhibitory effect by D-glucose: co-existence of 20 mM D-glucose; for inhibition of the acceleration of luminal formation by VEGF: with VEGF; for inhibition at 20000 µM: 20 mM
Method: Using a concurrent culture system of human endothelial cells and fibroblasts planted on a 24-well plate (Kurabo Co., Osaka, Japan), the culture medium was replaced by culture media containing a variety of additives at the early stage of luminal formation. Every 3 days, the medium was exchanged with the additive; 10 day after incubation, the endothelial cell only was stained by using mouse anti-human CD31 antibody (Kurabo Co., Osaka, Japan), goat anti-mouse IgG AlkP Conjugate (Kurabo Co., Osaka, Japan), and BCPI (5-bromo-4-chloro-3-indolyl phosphate) (Kurabo Co., Osaka, Japan) to photograph. The visualized area of the lumen was measured by means of NIH image software.

[3] = cited from earlier work; for Ald type (%): aldehyde structure; for Pira β (%): pyranose β-anomer; for Pira α (%): pyranose α-anomer; for Fra α (%): furanose α-anomer; for Fra β (%): furanose β-anomer
[4] = Example 2 (36 species), 48 hours

O=CC[C@H](O)[C@H](O)CO [DRI, 2-deoxy-D-ribose]
effect on the growth of HUVEC ([1]; Example 1, 0.1-20 mM, 48 hrs): effect was confirmed
effect on the growth of HUVEC [1, 4]: inhibitory effect was observed
inhibition at 20000 µM ([1]; 48 hrs): 40 to 80%
antagonism of the growth inhibitory effect by D-glucose [1]: no antagonism
effect on the luminal formation [2]: effect was confirmed
effect on the luminal formation of HUVEC [2]: inhibitory effect was observed; also recorded: strong action
inhibition at 1000 µM [2]: ~20%
inhibition at 2500 µM [2]: > 95%
antagonism of the luminal formation inhibitory effect by D-glucose [2]: no apparent effect
inhibition of the acceleration of luminal formation by VEGF [2]: inhibit the acceleration by VEGF

O=C[C@H](O)[C@H](O)[C@H](O)CO [RIB, D-ribose]
effect on the growth of HUVEC ([1]; Example 1, 0.1-20 mM, 48 hrs): no influence
effect on the luminal formation [2]: effect was confirmed
effect on the luminal formation of HUVEC [2]: inhibitory effect was observed
inhibition at 20000 µM [2]: 50 to 80%
antagonism of the luminal formation inhibitory effect by D-glucose [2]: no apparent effect
inhibition of the acceleration of luminal formation by VEGF [2]: inhibit the acceleration by VEGF

O=C[C@@H](O)[C@@H](O)[C@H](O)CO [Lyxose]
Ald type (%) [3]: 0.4%
C1/1C ([3]; chair form of pyranose α): mix
Pira β (%) [3]: 28%

O=C(CO)[C@H](O)[C@H](O)[C@H](O)CO [Psicose]
C1/1C ([3]; chair form of pyranose β): 1C
Pira α (%) [3]: 33%
Pira β (%) [3]: 67%

O=C[C@H](O)[C@@H](O)[C@H](O)[C@H](O)CO [D-glucose]
effect on the growth of HUVEC ([1]; Example 1, 0.1-20 mM, 48 hrs): no difference; also recorded: does not inhibit
effect on the luminal formation [2]: does not inhibit
share of the chair type C1 ([3]; in an aqueous solution): ~100%

O=C(CO)[C@H](O)[C@@H](O)[C@H](O)CO [DSO, D-sorbose]
effect on the growth of HUVEC [1, 4]: no remarkable effect

O=C[C@H](O)[C@@H](O)[C@@H](O)[C@H](O)CO [Galactose]
Ald type (%) [3]: 0.082%
Fra α (%) [3]: trace
Fra β (%) [3]: trace
Pira β (%) [3]: 64%

O=C[C@H](O)[C@@H](O)[C@H](O)CO [Xylose]
Ald type (%) [3]: 0.17%
Pira β (%) [3]: 63%

O=C[C@H](O)[C@H](O)[C@@H](O)[C@H](O)CO [GUL, D-gulose]
effect on the growth of HUVEC ([1]; Example 1, 0.1-20 mM, 48 hrs): no influence
effect on the luminal formation [2]: effect was confirmed
effect on the luminal formation of HUVEC [2]: inhibitory effect was observed
inhibition at 20000 µM [2]: 50 to 80%
antagonism of the luminal formation inhibitory effect by D-glucose [2]: no apparent effect
inhibition of the acceleration of luminal formation by VEGF [2]: inhibit the acceleration by VEGF

O=C[C@@H](O)[C@H](O)[C@@H](O)[C@H](O)CO [Idose]
C1/1C ([3]; chair form of pyranose α): mix
Fra α (%) [3]: 16%
Fra β (%) [3]: 16%
Pira β (%) [3]: 37%

O=C(CO)[C@@H](O)[C@H](O)[C@H](O)CO [Fructose]
C1/1C ([3]; chair form of pyranose α): mix
C1/1C ([3]; chair form of pyranose β): 1C
Pira α (%) [3]: 28%
Pira β (%) [3]: 72%

O=C[C@@H](O)[C@@H](O)[C@@H](O)CO [LRI, L-ribose]
effect on the growth of HUVEC ([1]; Example 1, 0.1-20 mM, 48 hrs): no influence
effect on the luminal formation [2]: effect was confirmed
effect on the luminal formation of HUVEC [2]: inhibitory effect was observed
inhibition at 20000 µM [2]: 50 to 80%
antagonism of the luminal formation inhibitory effect by D-glucose [2]: no apparent effect
inhibition of the acceleration of luminal formation by VEGF [2]: inhibit the acceleration by VEGF

O=C[C@H](O)[C@H](O)[C@H](O)[C@H](O)CO [Allose]
Ald type (%) [3]: 1.38%
Fra α (%) [3]: 5%
Fra β (%) [3]: 7%
Pira β (%) [3]: 70%

O=C(CO)[C@@H](O)[C@@H](O)[C@@H](O)CO [LPS, L-psicose]
effect on the growth of HUVEC [1, 4]: no remarkable effect

O=C(CO)[C@@H](O)[C@H](O)[C@H](O)CO [FRU, D-fructose]
effect on the growth of HUVEC [1, 4]: no remarkable effect

O=C[C@@H](O)[C@@H](O)[C@@H](O)[C@@H](O)CO [LAL, L-allose]
effect on the growth of HUVEC ([1]; Example 1, 0.1-20 mM, 48 hrs): no influence
effect on the luminal formation [2]: effect was confirmed
effect on the luminal formation of HUVEC [2]: inhibitory effect was observed
inhibition at 20000 µM [2]: 50 to 80%
antagonism of the luminal formation inhibitory effect by D-glucose [2]: antagonized

O=C(CO)[C@@H](O)[C@H](O)[C@@H](O)CO [SOR, L-sorbose]
effect on the growth of HUVEC ([1]; Example 1, 0.1-20 mM, 48 hrs): effect was confirmed; also recorded: inhibitory effect for growth
effect on the growth of HUVEC [1, 4]: growth inhibition; also recorded: inhibitory effect was observed
inhibition at 20000 µM ([1]; 48 hrs): 40 to 80%
antagonism of the growth inhibitory effect by D-glucose [1]: no antagonism
effect on the luminal formation [2]: no influence

O=C[C@H](O)[C@H](O)[C@H](O)CO [Ribose]
Ald type (%) [3]: 8.5%
C1/1C ([3]; chair form of pyranose α): mix
C1/1C ([3]; chair form of pyranose β): mix
Fra α (%) [3]: 6%
Fra β (%) [3]: 18%
Pira β (%) [3]: 56%

O=C(CO)[C@H](O)[C@@H](O)[C@@H](O)CO [LFR, L-fructose]
effect on the growth of HUVEC [1, 4]: no remarkable effect

O=C[C@@H](O)[C@H](O)[C@H](O)[C@H](O)CO [ALT, D-altrose]
effect on the growth of HUVEC ([1]; Example 1, 0.1-20 mM, 48 hrs): no influence
effect on the luminal formation [2]: effect was confirmed
effect on the luminal formation of HUVEC [2]: inhibitory effect was observed
inhibition at 20000 µM [2]: 50 to 80%
antagonism of the luminal formation inhibitory effect by D-glucose [2]: no apparent effect
inhibition of the acceleration of luminal formation by VEGF [2]: inhibit the acceleration by VEGF

O=C(CO)[C@@H](O)[C@@H](O)[C@H](O)CO [Tagatose]
Pira α (%) [3]: 89%
Pira β (%) [3]: 11%

O=C[C@@H](O)[C@H](O)[C@H](O)CO [Arabinose]
Ald type (%) [3]: 0.28%
C1/1C ([3]; chair form of pyranose α): 1C
C1/1C ([3]; chair form of pyranose β): mix
Fra α + Fra β total (%) ([3]; furanose, total of α and β): total 3%
Pira β (%) [3]: 34%

O=C[C@@H](O)[C@@H](O)[C@@H](O)[C@H](O)CO [TAO, D-talose]
effect on the growth of HUVEC ([1]; Example 1, 0.1-20 mM, 48 hrs): no influence
effect on the luminal formation [2]: effect was confirmed
effect on the luminal formation of HUVEC [2]: inhibitory effect was observed
inhibition at 20000 µM [2]: 50 to 80%

O=CC[C@@H](O)[C@@H](O)CO [LDR, 2-deoxy-L-ribose]
effect on the growth of HUVEC ([1]; Example 1, 0.1-20 mM, 48 hrs): effect was confirmed
effect on the growth of HUVEC [1, 4]: inhibitory effect was observed
inhibition at 20000 µM ([1]; 48 hrs): 40 to 80%
antagonism of the growth inhibitory effect by D-glucose [1]: no antagonism
effect on the luminal formation [2]: effect was confirmed
effect on the luminal formation of HUVEC [2]: inhibitory effect was observed; also recorded: strong action
inhibition at 1000 µM [2]: ~20%
inhibition at 2500 µM [2]: > 95%
antagonism of the luminal formation inhibitory effect by D-glucose [2]: no apparent effect
inhibition of the acceleration of luminal formation by VEGF [2]: inhibit the acceleration by VEGF

O=C[C@H](O)C[C@H](O)[C@H](O)CO [3DG, 3-deoxy-D-glucose]
effect on the growth of HUVEC ([1]; Example 1, 0.1-20 mM, 48 hrs): effect was confirmed
effect on the growth of HUVEC ([1]; Example 1, 0.1-20 mM, 48 hrs, listed as 3-deoxy-D-glucose): inhibit both
effect on the growth of HUVEC [1, 4]: inhibitory effect was observed
inhibition at 20000 µM ([1]; 48 hrs): 40 to 80%
antagonism of the growth inhibitory effect by D-glucose [1]: antagonized
effect on the luminal formation [2]: effect was confirmed
effect on the luminal formation ([2]; listed as 3-deoxy-D-glucose): inhibit both
effect on the luminal formation of HUVEC [2]: inhibitory effect was observed
inhibition at 20000 µM [2]: 50 to 80%
antagonism of the luminal formation inhibitory effect by D-glucose [2]: no apparent effect

O=C(CO)[C@@H](O)[C@@H](O)[C@H](O)CO [TAG, D-tagatose]
effect on the growth of HUVEC [1, 4]: no remarkable effect

O=C(CO)[C@H](O)[C@H](O)[C@@H](O)CO [LTA, L-tagatose]
effect on the growth of HUVEC [1, 4]: no remarkable effect
